Assays:
[1] = system: dogs and cats; settings: cited from earlier work
[2] = system: porcine of which liver was replaced by transplantation; settings: intraportal administration; cited from earlier work
[3] = system: implanted liver; settings: added to liver preservation solution; rat liver transplantation model; cited from earlier work
[4] = system: normal rats; experiment: Test Example 1: bile flow in normal rats after oral administration; type: in vivo, rat; settings: 100 μg/kg orally 3 times a day for 7 days; bile collected on day 8, 1 to 2 hours after cannulation; vs vehicle
Procedure: Male Wister rats were used. 100 μg/kg of test compound 1 (13,14-dihydro-15-keto-16, 16-difluoro-18(S)-methyl-prostaglandin E1) was administered orally to the test group animals (n=8) 3 times a day for 7days. To the control group animals (n=7), the same volume of the vehicle, i.e. 0.01% polysorbate 80, 0.5% ethanol in distilled water was administered. At the next day after the final administration (day 8), the common bile duct of the respective rat was cannulated under ether anesthesia and the rat was placed in ball man gauge for 1 hour to recover from anesthesia. The bile discharged over one hour time period, i.e. from 1 to 2 hours of the cannulation, was collected and determined bile flow.

[5] = system: perfused rat liver; experiment: Test Example 2: bile flow of isolated perfused rat liver
Procedure: Male Wister rats were used. Each rat was cannulated for collection of bile under pentobarbital sodium anesthesia. A catheter was inserted and fixed in the portal vein. Krebs-Ringer solution saturated with 95% O2 and 5% CO2 (pH 7.4, 37° C.) was infused via the catheter at a constant flow rate of 4.0 ml/min/g liver weight by means of peristaltic pump to perfuse the liver. The liver was removed under perfusion. In case where the bile secretion was necessary to maintain being the physiological level, the liver was perfused with Krebs-Ringer solution supplemented with sodium taurocolate (30 μmol/l). For the test group animals, the test compound 1 was added to the Krebs-Ringer solution. Bile of the each animals including test and control groups was collected in every 5 minutes.

[6] = system: anoxia/re-oxygenation perfused rat liver; experiment: Test Example 3: bile flow recovery of anoxia/re-oxygenation perfused rat liver; settings: 10 μM added at re-oxygenation after 20 minutes of anoxia; vs vehicle
Procedure: Isolated perfused liver sample was prepared by the same manner as described in the test example 2. Each livers of test and control groups was perfused with Krebs-Ringer solution saturated with 95% N2 and 5% CO2 for 20 minutes to expose the liver oxygen-free condition. After that, Krebs-Ringer solution saturated with 95% O2 and 5% CO2 was perfused to re-oxygenize the liver. At the re-oxygenization step, 10 μM of the test compound 1 was added to the Krebs-Ringer solution for the test group.

[7] = system: rat isolated liver; experiment: Test Example 4: bile flow of rat isolated liver, compound added to preservation solution; settings: 10 μM added to U-W preservation solution, 4° C., 16 hours storage; 40 minutes reperfusion
Source text: Male Wister Rats were anesthetized with pentobarital sodium and hepatic-portal region was exposed by abdominal midline incision. The common bile duct was cannulated and the portal stem was inserted with a 19 gauge surflo® needle equipped with a three way stopcock. […] Treitz' ligament, the ligament around the liver, and diaphragm were cut and the liver was removed to the outside of the body and subjected to extracoporeal perfusion. The liver was subjected to a fifteen minutes of pre-perfusion until its oxygen consumption achieved to constant and then, the perfusate was exchanged with University of Wisconsin solution (U-W solution) at 4° C. Immediately after finish of the exchange, the liver connected with the three-way stopcock was removed from the perfusion cycle and the inlet was clamped. Then the liver was putted into the U-W solution at the same temperature and stored for 16 hours. […] During the reperfusion period, bile flow was determined every 5 minutes.
In the above perfusion protocol, 10 μM of test compound 1 or test compound 2 (13,14-dihydro-15-keto-16,16-difluoro-17(R)-methyl-prostaglandin E1) were added to the U-W solution to determine the effects of these drugs on recovery of bile flow.

[8] = system: rat isolated liver; experiment: Test Example 5: bile flow of cold preserved rat isolated liver, compound added to rinse solution; settings: added to Krebs-Ringer rinse solution perfused for 40 minutes after 16-hour cold storage
Procedure: The perfusion protocol of the Test Example 4 was repeated except for the test compound 1 and the test compound 2 were added to the Krebs-Ringer solution, i.e. the rinse solution perfused for 40 minute's to determine the recovery of the bile flow.

Compound: CCCCC[C@H](O)/C=C/[C@H]1C=CC(=O)[C@@H]1CCCCCCC(=O)O [PGA1]
- cholagogic effect [1]: cholagogic effect

Compound: CCCCC[C@H](O)/C=C/[C@H]1[C@H](O)CC(=O)[C@@H]1CCCCCCC(=O)O [PGE1, prostaglandin E1]
- cholagogic effect [1]: cholagogic effect
- bile flow [2]: increased the bile flow

Compound: CCCCC[C@H](O)/C=C/[C@H]1[C@H](O)CC(=O)[C@@H]1C/C=C\CCCC(=O)O [PGE2]
- cholagogic effect [1]: cholagogic effect

Compound: CCCCC[C@H](O)/C=C/[C@@H]1[C@@H](C/C=C\CCCC(=O)O)[C@@H](O)C[C@H]1O [PGF2a]
- cholagogic effect [1]: cholagogic effect

Compound: CCCC[C@H](C)C[C@H](O)/C=C/[C@@H]1C2CC(CCCCC(=O)O)=CC2C[C@H]1O (stereo partly shown) [TEI-9063]
- bile producing activity of the implanted liver [3]: improved bile producing activity

Compound: CCCCC[C@H](O)/C=C/[C@@H]1[C@H]2C/C(=C/CCCC(=O)O)O[C@H]2C[C@H]1O [prostacyclin]
- cholagogic effect [1]: cholagogic effect

Compound: CC[C@H](C)CC(F)(F)C(=O)CC[C@H]1[C@H](O)CC(=O)[C@@H]1CCCCCCC(=O)O [test compound 1, 13,14-dihydro-15-keto-16,16-difluoro-18(S)-methyl-prostaglandin E1]
- normal rat bile flow [4]: significantly increased
- bile flow of the perfused rat liver ([5]; compound added to Krebs-Ringer perfusate): significantly increased bile flow
- cholagogic effect, dose dependence ([5]; under the presence of bile acid (sodium taurocolate 30 μmol/l)): dose dependent cholagogic effect
- bile flow, presence (TC(+)) or absence (TC(−)) of bile acid ([5]; with or without bile acid in the perfusate): increased the bile flow irrespective of the presence or absence of bile acid
- bile flow recovery after anoxia/re-oxygenation [6]: significantly increased the bile flow
- bile flow at the reperfusion step [7]: increased the bile flow at the reperfusion step significantly
- bile flow in reperfusion of cold preserved rat liver [8]: significantly increased

Compound: CCCC(C)C(F)(F)C(=O)CCC1C(O)CC(=O)C1CCCCCCC(=O)O [test compound 2, 13,14-dihydro-15-keto-16,16-difluoro-17(R)-methyl-prostaglandin E1]
- bile flow at the reperfusion step [7]: increased the bile flow at the reperfusion step significantly
- bile flow in reperfusion of cold preserved rat liver [8]: significantly increased

From US6469062B2, “Use of 15-keto-prostaglandins in promoting bile secretion” (Sucampo A.G., priority 2000, dated 2002)
